ChEMBL document CHEMBL1201862, “PubChem BioAssay data set” (2004)
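In this assay, cells in 96-well plates receive the compound at five concentrations for 48 hours. Endpoints are linearly interpolated between the surrounding concentrations. At the GI50, growth is halved.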 Activity calls are given as the source filed them. Cut-off read from the data, not from the text of the source: active = GI50 up to about 1.1 µM and inactive = higher.

Key:
Experiment in all cases: DTP human tumour cell line panel, 48 h
[1] = test system: NCI-H23
[2] = test system: OVCAR-8
[3] = test system: NCI/ADR-RES
[4] = test system: SF-295
[5] = test system: SN12C
[6] = test system: HOP-92
[7] = test system: LOX IMVI
[8] = test system: RPMI-8226
[9] = test system: COLO 205
[10] = test system: SK-MEL-5
[11] = test system: CAKI-1
[12] = test system: SK-MEL-28
[13] = test system: SF-539
[14] = test system: MOLT-4
[15] = test system: EKVX
[16] = test system: DU-145
[17] = test system: PC-3
[18] = test system: MDA-N
[19] = test system: T47D
[20] = test system: SR

Structure (SMILES)	GI50 [1]	GI50 [2]	GI50 [3]	GI50 [4]	GI50 [5]	GI50 [6]	GI50 [7]	GI50 [8]	GI50 [9]	GI50 [10]	GI50 [11]	GI50 [12]	GI50 [13]	GI50 [14]	GI50 [15]	GI50 [16]	GI50 [17]	GI50 [18]	GI50 [19]	GI50 [20]
O=C1Sc2sc(=S)sc2SC1c1ccccc1 (stereo not given)	82.6 µM (inactive)	59 µM (inactive)	40.5 µM (inactive)	> 81.1 µM (inactive)	> 89.7 µM (inactive)	36.6 µM (inactive)	30.8 µM (inactive)	46.9 µM (inactive)	37.2 µM (inactive)	> 100 µM (inactive)	1 µM (active)	> 45.6 µM (inactive)	74 µM (inactive)	31.6 µM (inactive)	> 100 µM (inactive)					
COc1ccc(-c2cc(-c3ccco3)c(C#N)c(=S)n2C2OC(CO)C(O)C(O)C2O)cc1 (stereo not given)	> 100 µM (inactive)	> 100 µM (inactive)	> 100 µM (inactive)	80.4 µM (inactive)	> 100 µM (inactive)		50.4 µM (inactive)	> 100 µM (inactive)	> 100 µM (inactive)	44.7 µM (inactive)	> 100 µM (inactive)	> 100 µM (inactive)	> 100 µM (inactive)	> 100 µM (inactive)	> 100 µM (inactive)	> 10 µM (inactive)	> 100 µM (inactive)	> 100 µM (inactive)		
Cc1nn(C(=O)Cc2ccccc2)c2c1C(c1ccc(Cl)cc1)SC(=N)N2 (stereo not given)	> 100 µM (inactive)	> 100 µM (inactive)		> 100 µM (inactive)	> 100 µM (inactive)		> 100 µM (inactive)	> 100 µM (inactive)	> 100 µM (inactive)	> 100 µM (inactive)	> 100 µM (inactive)	> 100 µM (inactive)	> 100 µM (inactive)	> 100 µM (inactive)	> 100 µM (inactive)	> 100 µM (inactive)	> 100 µM (inactive)		> 100 µM (inactive)	> 100 µM (inactive)
O=C(CNc1ccccc1C(=O)O)Nn1cnc2ccc(S(=O)(=O)Nc3ccccc3C(=O)O)cc2c1=O	> 100 µM (inactive)	> 100 µM (inactive)	> 100 µM (inactive)	> 100 µM (inactive)	> 100 µM (inactive)	> 100 µM (inactive)	> 100 µM (inactive)	> 100 µM (inactive)	> 100 µM (inactive)		> 100 µM (inactive)	> 100 µM (inactive)	> 100 µM (inactive)	> 100 µM (inactive)	> 100 µM (inactive)	> 100 µM (inactive)	> 100 µM (inactive)	> 100 µM (inactive)		> 100 µM (inactive)
CCC(C)C1NC(=O)C2CCCN2C(=O)C(CC2CO2)OC(=O)CCNC(=O)C(C)N(C)C(=O)C(C(C)C)N(C)C1=O (stereo not given)		0.22 µM (active)	> 47.8 µM (inactive)	0.176 µM (active)	> 100 µM (inactive)	> 8.22 µM (inactive)	< 0.0208 µM (active)	0.968 µM (active)	< 0.0236 µM (active)	< 0.0169 µM (active)	0.993 µM (active)	> 100 µM (inactive)	0.199 µM (active)	1.57 µM (inactive)	35.4 µM (inactive)		0.889 µM (active)	0.181 µM (active)	6.05 µM (inactive)	< 0.024 µM (active)
COc1cccc(NC(=O)CC(=O)N2N=C(N3c4ccccc4Sc4ccccc43)CC2c2ccccc2)c1 (stereo not given)	> 100 µM (inactive)	> 100 µM (inactive)		> 100 µM (inactive)	> 100 µM (inactive)	> 100 µM (inactive)	> 100 µM (inactive)	> 100 µM (inactive)	> 100 µM (inactive)	> 100 µM (inactive)	> 100 µM (inactive)	> 100 µM (inactive)	> 100 µM (inactive)	> 100 µM (inactive)	> 100 µM (inactive)					> 100 µM (inactive)
CC(=O)OC1CCC2(C)C(CCC3C2CCC2(C)C(c4ccc(=O)oc4)C(OC(C)=O)CC32O)C1 (stereo not given)	0.0154 µM (active)	0.0171 µM (active)	0.0191 µM (active)	0.016 µM (active)	0.0162 µM (active)	0.0195 µM (active)	0.0176 µM (active)	0.0148 µM (active)	0.0288 µM (active)	0.0164 µM (active)	0.0151 µM (active)	0.0277 µM (active)	0.0125 µM (active)	0.0163 µM (active)	0.0168 µM (active)					
O=C1C=CC(=C(c2ccc(O)cc2)c2ccc(O)cc2)C=C1 [AURIN]	8.57 µM (inactive)	12.7 µM (inactive)		12.5 µM (inactive)	8.47 µM (inactive)	2.07 µM (inactive)	10 µM (inactive)	3.85 µM (inactive)	17.7 µM (inactive)	7.06 µM (inactive)	15.2 µM (inactive)	12.1 µM (inactive)	11.3 µM (inactive)	4.71 µM (inactive)	15.1 µM (inactive)					2.36 µM (inactive)
